Converted amounts (≈) assume the structure as drawn. Read-outs that look alike come from different tables or passages of the source. Where a SMILES comes first, the peptide text is derived from it. Where no end group is shown, it is not given here.
Tests used:
[1] = tested on: Escherichia coli ATCC 9723H; assay type: cell-based
Text: (§1) From the novel candidate AMP sequences predicted by AMPlify, 11 were selected for validation in vitro. Minimum inhibitory concentrations (MIC) and minimum bactericidal concentrations (MBC) were obtained using the AST procedures outlined by the Clinical and Laboratory Standards Institute (CLSI), with the recommended adaptations for testing cationic AMPs described by Hancock.
(§2) A panel of two Gram-positive and four Gram-negative bacterial isolates was generated to test predicted AMPs. Staphylococcus aureus ATCC 6538P, Streptococcus pyogenes (hospital isolate, unknown strain), Pseudomonas aeruginosa ATCC 10148, and Escherichia coli ATCC 9723H were obtained and tested at the University of Victoria. Additionally, a multi-drug resistant (MDR), carbapenemase-producing New-Delhi metallobetalactamase (CPO-NDM) clinical isolate of Escherichia coli was obtained from the BC Centre for Disease Control. E. coli ATCC 29522 was purchased from Cedarlane Laboratories (Burlington, Ontario, Canada) for comparison of AMP activity between a wild type, drug-susceptible control and the MDR strain. The latter two strains were tested at the BC Centre for Disease Control using identical AST procedures.
(§3) Bacteria were streaked onto nonselective nutrient agar from frozen stocks and incubated for 18–24 h at 37 °C. To prepare a standardized bacterial inoculum, isolated colonies were suspended in Mueller-Hinton Broth (MHB) and adjusted to an optical density of 0.08–0.1 at 600 nm, equivalent to a 0.5 McFarland standard and representing approximately 1–2 × 10^8 CFU/mL (CFU: colony forming units). The inoculum was diluted 1/250 in MHB to the target concentration of (5 ± 3) × 10^5 CFU/mL. Total viability counts from the final inoculum were examined to confirm the target bacterial density was obtained.
(§4) Selected candidate AMPs were purchased from Genscript (Piscataway, NJ), where they were synthesized using the vendor’s Flexpeptide platform. Lyophilized peptides were suspended in sterile ultrapure water or filter-sterilized 0.2% acetic acid as recommended by solubility testing reports provided with the GenScript synthesis. AMPs were diluted from 2560 to 5 μg/mL by a two-fold serial dilution in a 96-well polypropylene microtitre plate before 100 μl of the standardized bacterial inoculum of (5 ± 3) × 10^5 CFU/mL was added to each well. This generated a final test range of 256 to 0.5 μg/mL. MIC values were reported as the peptide concentration that produced no visible bacterial growth after a 16–24 h incubation at 37 °C.
(§5) For each AMP dilution series, the contents of the MIC well and the two adjacent wells containing two- and four-fold MIC were plated onto nonselective nutrient agar and incubated for 24 h at 37 °C. The concentration which killed 99.9% of the initial inoculum was determined to be the MBC.

E. coli ATCC 25922 = assay type: cell-based, Escherichia coli
Text: as §1
as §2, with “E. coli ATCC 29522 was purchased from Cedarlane Laboratories (Burlington, Ontario, Canada) for comparison of AMP activity between a wild type, drug-susceptible control and the MDR strain.” left out
as §3, §4, §5

[2] = tested on: MDR E. coli (CPO-NDM) clinical isolate; assay type: cell-based, Escherichia coli
Text: as §1, §2, §3, §4, §5

[3] = tested on: all E. coli strains tested; assay type: cell-based, Escherichia coli
Text: as §1, §2, §3, §4, §5

[4] = tested on: Staphylococcus aureus ATCC 6538P; assay type: cell-based
Text: as §1, §2, §3, §4, §5

[5] = tested on: at least one of the ten bacterial species tested: Bacillus subtilis, Micrococcus luteus, Staphyloccus aureus, Staphylococcus epidermis, Escherichia coli …; design: method as in Won and co-workers [2]; key: ✓: Whether the peptide shows antimicrobial activity against at least one of the ten bacterial species tested in the work; details: activity against at least one of ten bacterial species; blank cell = not active; ref Won and co-workers [2]; cited from earlier work
[6] = tested on: Streptococcus pyogenes (unknown strain; hospital isolate); assay type: cell-based
Text: as §1, §2, §3, §4, §5

[7] = range over all E. coli strains tested (ATCC 9723H, ATCC 25922, MDR CPO-NDM)

| Compound | MBC ([1]; ATCC 9723) | MBC ([1]; ATCC 9723, 24 h) | MBC (E. coli ATCC 25922; ATCC 25922) | MBC (E. coli ATCC 25922; ATCC 25922, 24 h) | MBC [2] | MIC [2] | MBC ([2]; 24 h) | MBC ([3]; all strains tested) | MIC ([3]; all strains tested) | MIC ([4]; ATCC 6538) | Active? [5] | MBC ([4]; ATCC 6538) | MBC ([4]; ATCC 6538, 24 h) | MBC [6] | MBC ([6]; 24 h) | MBC (E. coli ATCC 25922; E. coli ATCC 25922, as Table 3, in µg/mL, range over three independent experiments, NI = no inhibition observed) | MBC (E. coli ATCC 25922; E. coli ATCC 25922, plated on agar 24 h at 37 °C, kills 99.9% of inoculum, range over three independent experiments, NI = no inhibition observed) | MBC [3, 7] | MIC [3, 7] | MIC [6] |
| --- | --- | --- | --- | --- | --- | --- | --- | --- | --- | --- | --- | --- | --- | --- | --- | --- | --- | --- | --- | --- |
| CC[C@H](C)[C@H](NC(=O)[C@H](CO)NC(=O)[C@H](CCCCN)NC(=O)CNC(=O)[C@@H](NC(=O)[C@@H](NC(=O)[C@H](CCCCN)NC(=O)[C@@H](NC(=O)[C@@H](NC(=O)[C@H](CCC(=O)O)NC(=O)[C@H](Cc1c[nH]c2ccccc12)NC(=O)[C@H](CC(C)C)NC(=O)CN)[C@@H](C)O)[C@@H](C)CC)[C@@H](C)O)[C@@H](C)O)C(=O)N[C@@H](C)C(=O)N[C@@H](CC(C)C)C(=O)N[C@@H](CC(N)=O)C(=O)N[C@@H](CC(C)C)C(=O)N[C@@H](CC(C)C)C(=O)N[C@@H](CC(=O)O)C(=O)N[C@@H](CCCCN)C(=O)N[C@H](C(=O)N[C@@H](CCCCN)C(=O)N[C@@H](CS)C(=O)N[C@@H](CCCCN)C(=O)N[C@H](C(=O)N[C@@H](C)C(=O)NCC(=O)NCC(=O)N[C@@H](CS)C(=O)N1CCC[C@H]1C(=O)N1CCC[C@H]1C(=O)O)[C@@H](C)CC)[C@@H](C)CC [RaCa-3] (H-GLWETIKTTGKSIALNLLDKIKCKIAGGCPP-OH; N-terminus and C-terminus assumed) | 16 to 32 µg/mL | 5 to 10 µM | 8 to 16 µg/mL | 2 to 5 µM | 16 to 64 µg/mL | 16 to 32 µg/mL | 5 to 20 µM | 2 to 20 µM | 2 to 10 µM | – | – | – | – | – | – | – | – | – | – | – |
| FFPRVLPLANKFLPTIYCALPKSVGN [RaCa-7] | 32 to 256 µg/mL | 11 to 88 µM | 16 to 128 µg/mL | 6 to 44 µM | 16 to 128 µg/mL | – | 6 to 44 µM | 6 to 88 µM | 6 to 44 µM | ≥ 88 µM | – | – | – | – | – | – | – | – | – | – |
| Gaegurin 5 [GGN5] | – | – | – | – | – | – | – | – | – | – | ✓ | – | – | – | – | – | – | – | – | – |
| CC[C@H](C)[C@H](NC(=O)[C@@H](NC(=O)[C@@H]1CCCN1C(=O)[C@H](Cc1ccccc1)NC(=O)[C@@H](N)Cc1ccccc1)[C@@H](C)CC)C(=O)N[C@@H](C)C(=O)N[C@@H](CCCNC(=N)N)C(=O)N[C@@H](CC(C)C)C(=O)N[C@@H](C)C(=O)N[C@@H](C)C(=O)N[C@@H](CCCCN)C(=O)N[C@H](C(=O)N[C@H](C(=O)N1CCC[C@H]1C(=O)N[C@@H](CO)C(=O)N[C@@H](CC(C)C)C(=O)N[C@H](C(=O)N[C@@H](CS)C(=O)N[C@@H](C)C(=O)N[C@H](C(=O)N[C@H](C(=O)N[C@@H](CCCCN)C(=O)N[C@@H](CCCCN)C(=O)N[C@@H](CS)C(=O)O)[C@@H](C)O)C(C)C)C(C)C)[C@@H](C)CC)C(C)C [RaCa-2] (H-FFPIIARLAAKVIPSLVCAVTKKC-OH; N-terminus and C-terminus assumed) | 8 to 16 µg/mL | 3 to 6 µM | 4 to 16 µg/mL | 2 to 6 µM | 4 to 16 µg/mL | 4 to 16 µg/mL | 2 to 6 µM | – | 2 to 6 µM | – | – | 2 to 4 µg/mL | 1 to 2 µM | 64 to 128 µg/mL | 25 to 49 µM | – | – | – | – | – |
| CC[C@H](C)[C@H](NC(=O)[C@H](CCCCN)NC(=O)[C@H](CCC(=O)O)NC(=O)[C@H](CCCCN)NC(=O)[C@H](CO)NC(=O)[C@H](CCCCN)NC(=O)[C@H](CCCNC(=N)N)NC(=O)[C@H](Cc1ccccc1)NC(=O)[C@H](Cc1ccccc1)NC(=O)[C@H](CC(=O)O)NC(=O)CNC(=O)[C@H](CC(C)C)NC(=O)[C@@H](N)CC(C)C)C(=O)NCC(=O)N[C@@H](CCCCN)C(=O)N[C@@H](CCC(=O)O)C(=O)N[C@@H](Cc1ccccc1)C(=O)N[C@@H](CCCCN)C(=O)N[C@@H](CCCNC(=N)N)C(=O)N[C@H](C(=O)N[C@H](C(=O)N[C@@H](CCC(N)=O)C(=O)N[C@@H](CCCNC(=N)N)C(=O)N[C@H](C(=O)N[C@@H](CCCCN)C(=O)N[C@@H](CC(=O)O)C(=O)N[C@@H](Cc1ccccc1)C(=O)N[C@@H](CC(C)C)C(=O)N[C@@H](CCCNC(=N)N)C(=O)N[C@@H](CC(N)=O)C(=O)N[C@@H](CC(C)C)C(=O)N[C@H](C(=O)N1CCC[C@H]1C(=O)N[C@@H](CCCNC(=N)N)C(=O)N[C@H](C(=O)N[C@@H](CCC(=O)O)C(=O)N[C@@H](CO)C(=O)O)[C@@H](C)O)C(C)C)[C@@H](C)CC)C(C)C)[C@@H](C)CC [LL37, reference compound] | – | – | – | – | – | – | – | – | – | – | – | – | – | – | – | 8 to 16 µg/mL | 2 to 4 µM | 2 to 7 µM | 2 to 4 µM | – |
| CC[C@H](C)[C@H](NC(=O)[C@H](CCCCN)NC(=O)[C@@H](NC(=O)[C@H](C)NC(=O)[C@H](Cc1ccccc1)NC(=O)[C@H](CC(=O)O)NC(=O)[C@H](CCCCN)NC(=O)CNC(=O)[C@@H](NC(=O)[C@@H](NC(=O)[C@H](CCCCN)NC(=O)[C@@H](NC(=O)[C@@H](NC(=O)[C@H](CC(=O)O)NC(=O)[C@H](CC(C)C)NC(=O)[C@H](CC(C)C)NC(=O)CN)[C@@H](C)CC)[C@@H](C)CC)[C@@H](C)O)[C@@H](C)O)C(C)C)C(=O)N[C@@H](CC(C)C)C(=O)N[C@@H](CC(=O)O)C(=O)N[C@@H](CC(N)=O)C(=O)N[C@@H](CC(C)C)C(=O)N[C@@H](CCCCN)C(=O)N[C@@H](CS)C(=O)N[C@@H](CCCCN)C(=O)N[C@@H](CC(C)C)C(=O)N[C@@H](C)C(=O)NCC(=O)NCC(=O)N[C@@H](CS)C(=O)N1CCC[C@H]1C(=O)N1CCC[C@H]1C(=O)O [RaCa-1] (H-GLLDIIKTTGKDFAVKILDNLKCKLAGGCPP-OH; N-terminus and C-terminus assumed) | 128 to 256 µg/mL | 39 to 79 µM | 32 to 128 µg/mL | 10 to 39 µM | 64 to 128 µg/mL | – | 20 to 39 µM | 10 to 79 µM | 10 to 39 µM | – | – | – | – | ≥ 256 µg/mL | ≥ 79 µM | – | – | – | – | 256 µg/mL (≈ 78.9 µM) |
